Like-named read-outs stand apart in the source and are kept apart here. Square brackets hold non-standard residues; d marks the D form. Peptide text beside a SMILES is read from it. * marks the point of attachment. NOTA(2S-Bn(4-NHCS)) = O=C(O)CN1CCN(CC(=O)O)C[C@H](Cc2ccc(NC(=S)*)cc2)N(CC(=O)O)CC1; Cit = NC(=O)NCCC[C@H](N)C(=O)O; Ahx = NCCCCCC(=O)O

The data set can be described thus: In vivo biodistribution in HCT116 tumor-bearing mice. Conditions: female, mouse, iv, total radioactivity, mean (SD), n = 5; for tissue to tissue ratio at 1 h: BALB/c nu/nu, 7.4 kBq, HCT116 tumor-bearing mice, 1 h after i.v. injection; for tissue uptake at 1 h / tissue uptake dose at 1 h: 7.4 kBq i.v. (tail vein), 1 h after injection, gamma counter; for tissue uptake dose at 1 h: stomach (whole organ), whole organ. The method, then:
Animal experiments were conducted in accordance with our institutional guidelines and were approved by the Nagasaki University Animal Care Committee and the Kanazawa University Animal Care Committee. The animal experimental protocols were approved by the Committee on Animal Experimentation of Nagasaki University and Kanazawa University. BALB/c nu/nu mice (female; 4 weeks old) were supplied by Japan SLC (Shizuoka, Japan). The mice were maintained in a room at a constant ambient temperature and a 12/12 h light/dark cycle and were given free access to food and water. Mice were subcutaneously injected on their right shoulders with approximately 1.0 × 10^7 HCT116 cells. The tumors were allowed to reach 300–500 mm^3 (1–2 weeks after inoculation) before biodistribution studies were performed.
Each [^67Ga]Ga-NOTA-peptide (7.4 kBq) was administered to mice via tail vein injection in 100 μL of saline. The mice were euthanized 1 h after injection, and their organs were harvested. The tissues were weighed and the radioactivity in each sample was measured using an automated gamma counter (n = 5). The results are expressed as the percent injected dose per gram of tissue (%ID/g) or as %ID.

Where [1] appears, read: tumor/blood, read-out: Tumor/Blood ratio.
Where [2] appears, read: tumor/muscle, read-out: Tumor/Muscle ratio.
Setting [3] is: blood, HCT116 tumor-bearing BALB/c nu/nu mice, read-out: Biodistribution, Blood.
[4] abbreviates: brain, HCT116 tumor-bearing BALB/c nu/nu mice, read-out: Biodistribution, Brain.
Setting [5] is: heart, HCT116 tumor-bearing BALB/c nu/nu mice, read-out: Biodistribution, Heart.
Setting [6] is: intestine, HCT116 tumor-bearing BALB/c nu/nu mice, read-out: Biodistribution, Intestine.
Setting [7] is: HCT116 tumor, BALB/c nu/nu mice, read-out: Biodistribution, Tumor.
[8] abbreviates: kidney, HCT116 tumor-bearing BALB/c nu/nu mice, read-out: Biodistribution, Kidney.
Where [9] appears, read: liver, HCT116 tumor-bearing BALB/c nu/nu mice, read-out: Biodistribution, Liver.
The mark [10] stands for this setting: lung, HCT116 tumor-bearing BALB/c nu/nu mice, read-out: Biodistribution, Lung.
Setting [11] is: muscle, HCT116 tumor-bearing BALB/c nu/nu mice, read-out: Biodistribution, Muscle.
The mark [12] stands for this setting: pancreas, HCT116 tumor-bearing BALB/c nu/nu mice, read-out: Biodistribution, Pancreas.
[13] abbreviates: spleen, HCT116 tumor-bearing BALB/c nu/nu mice, read-out: Biodistribution, Spleen.
Setting [14] is: HCT116 tumor-bearing BALB/c nu/nu mice.

As for `CC(=O)NCCCCCC(=O)N[C@H](CCC(=O)O)C(=O)N[C@H](CCC(=O)O)C(=O)N[C@H](CCC(=O)O)C(=O)N[C@H](CCC(=O)O)C(=O)N[C@H](CCC(=O)O)C(=O)N[C@H](CCC(=O)O)C(=O)N[C@H](CCC(=O)O)C(=O)N[C@H](CCC(=O)O)C(=O)N[C@H](CCC(=O)O)C(=O)NCCCCCC(=O)N1CCC[C@H]1C(=O)N[C@@H](C)C(=O)N[C@@H](C)C(=O)N[C@@H](CC(N)=O)C(=O)N[C@H](C(=O)NCC(=O)N[C@H](CCCNC(=N)N)C(=O)N[C@H](CCCNC(=N)N)C(=O)N[C@H](CCCNC(=N)N)C(=O)N[C@H](CCCNC(=N)N)C(=O)N[C@H](CCCNC(=N)N)C(=O)N[C@H](CCCNC(=N)N)C(=O)N[C@H](CCCNC(=N)N)C(=O)N[C@H](CCCNC(=N)N)C(=O)N[C@H](CCCNC(=N)N)C(=O)NCCCCCC(=O)N[C@H](CCCCNC(=S)Nc1ccc(C[C@H]2CN(CC(=O)O)CCN(CC(=O)O)CCN2CC(=O)O)cc1)C(N)=O)C(C)C` [[^67Ga]Ga-NOTA-LCP-1, metal not drawn] (Ac-[Ahx][dE][dE][dE][dE][dE][dE][dE][dE][dE][Ahx]PAANVG[dR][dR][dR][dR][dR][dR][dR][dR][dR][Ahx][dK](NOTA(2S-Bn(4-NHCS)))-NH2), the tissue to tissue ratio at 1 h by setting is: under setting [1], 8.29 ± 3.41; under setting [2], 3.54. Moreover, the tissue uptake at 1 h runs as follows: under setting [3], 0.28 %ID/g; under setting [4], 0.03 %ID/g; under setting [5], 0.53 %ID/g; under setting [6], 0.44 %ID/g; under setting [7], 1.83 ± 0.32 %ID/g; under setting [8], 129 %ID/g. In addition, the tissue uptake at 1 h by setting is: under setting [9], 19.1 %ID/g; under setting [10], 0.93 %ID/g; under setting [11], 0.54 %ID/g; under setting [12], 0.31 %ID/g; under setting [13], 3.94 %ID/g. Moreover, under setting [14], the tissue uptake dose at 1 h came to 0.18 %ID.
For `CC(=O)NCCCCCC(=O)N[C@H](CCC(=O)O)C(=O)N[C@H](CCC(=O)O)C(=O)N[C@H](CCC(=O)O)C(=O)N[C@H](CCC(=O)O)C(=O)NCCCCCC(=O)N1CCC[C@H]1C(=O)N[C@@H](C)C(=O)N[C@@H](C)C(=O)N[C@@H](CC(N)=O)C(=O)N[C@H](C(=O)NCC(=O)N[C@H](CCCNC(=N)N)C(=O)N[C@H](CCCNC(=N)N)C(=O)N[C@H](CCCNC(=N)N)C(=O)N[C@H](CCCNC(=N)N)C(=O)N[C@H](CCCNC(=N)N)C(=O)NCCCCCC(=O)N[C@H](CCCCNC(=S)Nc1ccc(C[C@H]2CN(CC(=O)O)CCN(CC(=O)O)CCN2CC(=O)O)cc1)C(N)=O)C(C)C` [[^67Ga]Ga-NOTA-LCP-3, metal not drawn] (Ac-[Ahx][dE][dE][dE][dE][Ahx]PAANVG[dR][dR][dR][dR][dR][Ahx][dK](NOTA(2S-Bn(4-NHCS)))-NH2), the tissue to tissue ratio at 1 h came out at 2.2 ± 0.69 under setting [1] and 2.47 under setting [2]. The tissue uptake at 1 h under setting [3] was found to be 0.46 %ID/g; the tissue uptake at 1 h under setting [4] was 0.04 %ID/g; the tissue uptake at 1 h under setting [5] was determined as 0.44 %ID/g; the tissue uptake at 1 h under setting [6] was found to be 0.63 %ID/g; the tissue uptake at 1 h under setting [7] is 0.97 ± 0.25 %ID/g; the tissue uptake at 1 h under setting [8] is 96.6 %ID/g. The tissue uptake at 1 h by setting is: under setting [9], 17.2 %ID/g; under setting [10], 1.58 %ID/g; under setting [11], 0.4 %ID/g; under setting [12], 0.38 %ID/g; under setting [13], 4.37 %ID/g. Besides, under setting [14], the tissue uptake dose at 1 h came out at 0.19 %ID.
`CC(=O)NCCCCCC(=O)N[C@H](CCC(=O)O)C(=O)N[C@H](CCC(=O)O)C(=O)N[C@H](CCC(=O)O)C(=O)N[C@H](CCC(=O)O)C(=O)N[C@H](CCC(=O)O)C(=O)N[C@H](CCC(=O)O)C(=O)N[C@H](CCC(=O)O)C(=O)N[C@H](CCC(=O)O)C(=O)N[C@H](CCC(=O)O)C(=O)NCCCCCC(=O)N1CCC[C@H]1C(=O)N[C@@H](C)C(=O)N[C@@H](C)C(=O)N[C@@H](CCCNC(N)=O)C(=O)N[C@H](C(=O)NCC(=O)N[C@H](CCCNC(=N)N)C(=O)N[C@H](CCCNC(=N)N)C(=O)N[C@H](CCCNC(=N)N)C(=O)N[C@H](CCCNC(=N)N)C(=O)N[C@H](CCCNC(=N)N)C(=O)N[C@H](CCCNC(=N)N)C(=O)N[C@H](CCCNC(=N)N)C(=O)N[C@H](CCCNC(=N)N)C(=O)N[C@H](CCCNC(=N)N)C(=O)NCCCCCC(=O)N[C@H](CCCCNC(=S)Nc1ccc(C[C@H]2CN(CC(=O)O)CCN(CC(=O)O)CCN2CC(=O)O)cc1)C(N)=O)C(C)C` [[^67Ga]Ga-NOTA-NCP-1, metal not drawn] (Ac-[Ahx][dE][dE][dE][dE][dE][dE][dE][dE][dE][Ahx]PAA[Cit]VG[dR][dR][dR][dR][dR][dR][dR][dR][dR][Ahx][dK](NOTA(2S-Bn(4-NHCS)))-NH2): the tissue to tissue ratio at 1 h is, setting by setting: under setting [1], 4.39 ± 2.07; under setting [2], 1.91. The tissue uptake at 1 h amounted to 0.45 %ID/g under setting [3]; 0.04 %ID/g under setting [4]; 0.43 %ID/g under setting [5]; 0.53 %ID/g under setting [6]; 1.8 ± 0.51 %ID/g under setting [7]; 122 %ID/g under setting [8]. Also, the tissue uptake at 1 h under setting [9] was 17.4 %ID/g; the tissue uptake at 1 h under setting [10] is 1.08 %ID/g; the tissue uptake at 1 h under setting [11] was 0.96 %ID/g; the tissue uptake at 1 h under setting [12] was 0.64 %ID/g; the tissue uptake at 1 h under setting [13] stood at 3.15 %ID/g. For the same molecule, the tissue uptake dose at 1 h under setting [14] is 0.22 %ID.
With `CC(=O)NCCCCCC(=O)N[C@H](CCC(=O)O)C(=O)N[C@H](CCC(=O)O)C(=O)N[C@H](CCC(=O)O)C(=O)N[C@H](CCC(=O)O)C(=O)NCCCCCC(=O)N1CCC[C@H]1C(=O)N[C@@H](C)C(=O)N[C@@H](C)C(=O)N[C@@H](CCCNC(N)=O)C(=O)N[C@H](C(=O)NCC(=O)N[C@H](CCCNC(=N)N)C(=O)N[C@H](CCCNC(=N)N)C(=O)N[C@H](CCCNC(=N)N)C(=O)N[C@H](CCCNC(=N)N)C(=O)N[C@H](CCCNC(=N)N)C(=O)NCCCCCC(=O)N[C@H](CCCCNC(=S)Nc1ccc(C[C@H]2CN(CC(=O)O)CCN(CC(=O)O)CCN2CC(=O)O)cc1)C(N)=O)C(C)C` [[^67Ga]Ga-NOTA-NCP-3, metal not drawn] (Ac-[Ahx][dE][dE][dE][dE][Ahx]PAA[Cit]VG[dR][dR][dR][dR][dR][Ahx][dK](NOTA(2S-Bn(4-NHCS)))-NH2), the tissue to tissue ratio at 1 h runs as follows: under setting [1], 2.54; under setting [2], 2.7. For the same molecule, the tissue uptake at 1 h was found to be 0.41 %ID/g under setting [3]; 0.04 %ID/g under setting [4]; 0.56 %ID/g under setting [5]; 0.54 %ID/g under setting [6]; 0.95 %ID/g under setting [7]; 73.3 %ID/g under setting [8]. Also, the tissue uptake at 1 h runs as follows: under setting [9], 20.8 %ID/g; under setting [10], 1.36 %ID/g; under setting [11], 0.43 %ID/g; under setting [12], 0.46 %ID/g; under setting [13], 5.38 %ID/g. In addition, the tissue uptake dose at 1 h under setting [14] is 0.12 %ID.

The record behind these values is article PMC12693633, “Synthesis and Evaluation of Radiogallium-Labeled Peptide Probes for In Vivo Imaging of Legumain Activity” (Molecules, 2025).
